Assay results reported in publication PMC3909768 (Journal of Cancer, 2014).
Several values for one entry are separate records, joined by “and”; a condition that tells them apart may be missing. Equal values may be shown once.

Legend:
[1] = Brain and prostate distribution after single IV in rats; details: rat, in vivo
CYP3A = CYP3A induction in human hepatocytes; assay type: in vitro ADME; details: for CYP3A induction, in words: 1uM; for CYP 3A induction, Positive control, %: human hepatocytes, 48 hours
GABA receptors [2] = details: read-out: IC50, GABA receptors; ref [6]; cited from earlier work
LnCaP-Z2 tumors = test: LnCaP-Z2 xenograft antitumor efficacy; assay type: in vivo, male CB17-SCID mice
[3] = Drug concentration in plasma and xenograft tumor after 21-day dosing; details: male, CB17-SCID, mouse, in vivo
[4] = Plasma protein binding by equilibrium dialysis, rat; assay type: in vitro ADME; details: Rats plasma, 1 uM, equilibrium dialysis 4h 37C
[5] = Plasma protein binding by equilibrium dialysis, dog; assay type: in vitro ADME; details: Dogs plasma, 1 uM, equilibrium dialysis 4h 37C
[6] = Plasma protein binding by equilibrium dialysis, human; assay type: in vitro ADME; details: 1 uM, equilibrium dialysis 4h 37C
[7] = tested on: AR-dependent PSA expression in prostate cancer cells LnCAP; test: DHT-induced PSA expression in LnCAP cells; assay type: cell-based
AR = target: T1, AR (Homo sapiens, UniProt P10275); assay type: cell-based
T1 sequence (P10275 1-920): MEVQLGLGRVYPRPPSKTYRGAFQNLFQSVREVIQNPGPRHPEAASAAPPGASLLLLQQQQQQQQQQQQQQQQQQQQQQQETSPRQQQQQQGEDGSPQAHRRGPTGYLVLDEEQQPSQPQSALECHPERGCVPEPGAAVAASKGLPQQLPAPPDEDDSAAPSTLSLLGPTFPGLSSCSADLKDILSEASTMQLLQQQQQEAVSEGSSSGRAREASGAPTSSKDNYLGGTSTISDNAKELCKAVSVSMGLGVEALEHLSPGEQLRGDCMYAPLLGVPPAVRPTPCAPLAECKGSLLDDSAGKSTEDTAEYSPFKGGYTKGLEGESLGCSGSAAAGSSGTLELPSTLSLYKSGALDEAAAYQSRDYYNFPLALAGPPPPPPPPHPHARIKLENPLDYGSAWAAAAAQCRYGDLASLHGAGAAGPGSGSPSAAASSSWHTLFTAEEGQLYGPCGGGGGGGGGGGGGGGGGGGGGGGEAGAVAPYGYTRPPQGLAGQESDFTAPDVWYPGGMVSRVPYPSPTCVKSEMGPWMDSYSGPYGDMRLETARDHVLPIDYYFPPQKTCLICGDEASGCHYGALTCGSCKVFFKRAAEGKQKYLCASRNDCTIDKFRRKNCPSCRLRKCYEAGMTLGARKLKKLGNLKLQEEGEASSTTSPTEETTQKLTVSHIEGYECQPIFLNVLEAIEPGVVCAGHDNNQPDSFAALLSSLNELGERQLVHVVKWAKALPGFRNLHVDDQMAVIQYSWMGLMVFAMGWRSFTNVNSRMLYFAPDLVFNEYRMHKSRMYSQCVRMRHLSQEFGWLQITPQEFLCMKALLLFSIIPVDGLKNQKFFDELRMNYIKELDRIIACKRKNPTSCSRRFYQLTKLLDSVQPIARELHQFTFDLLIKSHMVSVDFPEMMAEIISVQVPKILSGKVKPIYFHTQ

GABA receptors [8] = test: [3H]GABA binding, rat cerebral cortex membranes; details: 10uM
[9] = Plasma protein binding by equilibrium dialysis, mouse; assay type: in vitro ADME; details: Mice plasma, 1 uM, equilibrium dialysis 4h 37C
[10] = tested on: androgen-dependent reproductive organs; test: Weight of androgen-dependent reproductive organs in rats, 14 days; assay type: in vivo, male rats; details: 30, 100 and 300 mg/kg/day po
[11] = tested on: spermatozoon in epididymis; test: Concentration of spermatozoon in epididymis of rats, 60 days; assay type: in vivo, male rats; details: n=6
Dog pharmacokinetics = assay type: in vivo, male beagle dogs; details: multiple oral doses in dogs
CYP 1A2 = target: T2, CYP 1A2 (Homo sapiens, UniProt P05177); test: CYP inhibition; assay type: in vitro ADME; details: concentrations up to 10 uM
T2 sequence (P05177 1-516): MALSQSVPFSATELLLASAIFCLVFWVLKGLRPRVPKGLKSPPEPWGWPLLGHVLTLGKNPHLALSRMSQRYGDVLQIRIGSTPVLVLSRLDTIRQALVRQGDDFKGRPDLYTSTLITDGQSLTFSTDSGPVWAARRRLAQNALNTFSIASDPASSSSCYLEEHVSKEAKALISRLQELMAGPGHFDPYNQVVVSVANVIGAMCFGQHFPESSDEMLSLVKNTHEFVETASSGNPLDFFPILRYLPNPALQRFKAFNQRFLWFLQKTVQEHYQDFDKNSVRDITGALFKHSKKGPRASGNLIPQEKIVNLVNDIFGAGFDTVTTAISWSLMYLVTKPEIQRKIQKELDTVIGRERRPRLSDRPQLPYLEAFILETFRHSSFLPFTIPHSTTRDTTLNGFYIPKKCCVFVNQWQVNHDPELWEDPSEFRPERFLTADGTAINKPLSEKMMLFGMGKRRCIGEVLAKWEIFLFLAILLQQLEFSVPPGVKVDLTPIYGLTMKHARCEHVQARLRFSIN

CYP 2C9 = CYP 2C9 (Homo sapiens, UniProt P11712); test: CYP inhibition; assay type: in vitro ADME; details: concentrations up to 10 uM
CYP 2C19 = CYP 2C19 (Homo sapiens, UniProt P33261); test: CYP inhibition; assay type: in vitro ADME; details: concentrations up to 10 uM
CYP 2D6 = CYP 2D6 (Homo sapiens, UniProt P10635); test: CYP inhibition; assay type: in vitro ADME; details: concentrations up to 10 uM
CYP 3A4 = CYP 3A4 (Homo sapiens, UniProt P08684); test: CYP inhibition; assay type: in vitro ADME; details: concentrations up to 10 uM
AR-LBD = target: T3, AR-LBD (Homo sapiens, UniProt P10275); test: biochemical
T3 sequence (P10275 669-900 limits assumed): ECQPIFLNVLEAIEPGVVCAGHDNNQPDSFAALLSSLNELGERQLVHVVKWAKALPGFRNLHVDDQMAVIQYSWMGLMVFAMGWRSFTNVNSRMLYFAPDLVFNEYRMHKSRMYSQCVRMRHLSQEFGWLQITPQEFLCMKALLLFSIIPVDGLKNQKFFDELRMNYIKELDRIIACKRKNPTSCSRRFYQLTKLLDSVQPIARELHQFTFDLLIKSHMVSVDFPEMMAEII

Rat pharmacokinetics = details: for C24h: after 14 administrations; for AUC(0-inf) / k el / MRT inf / concentration at 24 h / Cmax / Tmax / half-life: male, Sprague Dawley, rat, in vivo
[12] = 1 mg/kg, Prostate, single IV 1 mg/kg
[13] = 1 mg/kg, brain, single IV 1 mg/kg
[14] = 1 mg/kg, plasma, single IV 1 mg/kg
[15] = 2 mg/kg, Prostate, single IV 2 mg/kg
[16] = 2 mg/kg, brain, single IV 2 mg/kg
[17] = 2 mg/kg, plasma, single IV 2 mg/kg

Sequence of CYP 3A4 (P08684 whole entry, the tested form may be a part): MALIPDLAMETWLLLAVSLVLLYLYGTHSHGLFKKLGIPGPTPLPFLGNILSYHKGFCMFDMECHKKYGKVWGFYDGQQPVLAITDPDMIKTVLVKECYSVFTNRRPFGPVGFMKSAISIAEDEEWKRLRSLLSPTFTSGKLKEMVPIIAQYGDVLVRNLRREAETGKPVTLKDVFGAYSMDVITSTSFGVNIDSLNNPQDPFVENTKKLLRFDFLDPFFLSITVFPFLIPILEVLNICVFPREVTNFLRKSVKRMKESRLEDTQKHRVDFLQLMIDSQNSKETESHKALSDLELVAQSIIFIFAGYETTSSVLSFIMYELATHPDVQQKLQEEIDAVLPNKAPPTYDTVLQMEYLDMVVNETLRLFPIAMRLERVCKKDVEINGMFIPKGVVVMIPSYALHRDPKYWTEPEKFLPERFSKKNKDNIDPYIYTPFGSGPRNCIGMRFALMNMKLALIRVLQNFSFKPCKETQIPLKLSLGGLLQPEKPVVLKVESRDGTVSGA
Sequence of CYP 2C19 (P33261 whole entry): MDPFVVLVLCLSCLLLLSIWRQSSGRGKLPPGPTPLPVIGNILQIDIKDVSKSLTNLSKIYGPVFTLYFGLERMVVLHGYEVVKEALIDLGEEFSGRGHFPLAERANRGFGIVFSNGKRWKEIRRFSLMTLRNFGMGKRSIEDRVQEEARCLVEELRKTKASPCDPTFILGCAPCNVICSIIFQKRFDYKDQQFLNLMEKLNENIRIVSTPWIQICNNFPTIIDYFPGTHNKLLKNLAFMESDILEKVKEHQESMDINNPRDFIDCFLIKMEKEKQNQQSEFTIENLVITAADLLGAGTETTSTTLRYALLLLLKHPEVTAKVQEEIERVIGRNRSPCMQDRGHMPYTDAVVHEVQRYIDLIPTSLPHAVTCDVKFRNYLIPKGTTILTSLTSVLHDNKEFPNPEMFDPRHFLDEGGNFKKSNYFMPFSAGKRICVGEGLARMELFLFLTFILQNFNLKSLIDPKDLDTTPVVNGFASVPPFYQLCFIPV
Sequence of CYP 2C9 (P11712 whole entry): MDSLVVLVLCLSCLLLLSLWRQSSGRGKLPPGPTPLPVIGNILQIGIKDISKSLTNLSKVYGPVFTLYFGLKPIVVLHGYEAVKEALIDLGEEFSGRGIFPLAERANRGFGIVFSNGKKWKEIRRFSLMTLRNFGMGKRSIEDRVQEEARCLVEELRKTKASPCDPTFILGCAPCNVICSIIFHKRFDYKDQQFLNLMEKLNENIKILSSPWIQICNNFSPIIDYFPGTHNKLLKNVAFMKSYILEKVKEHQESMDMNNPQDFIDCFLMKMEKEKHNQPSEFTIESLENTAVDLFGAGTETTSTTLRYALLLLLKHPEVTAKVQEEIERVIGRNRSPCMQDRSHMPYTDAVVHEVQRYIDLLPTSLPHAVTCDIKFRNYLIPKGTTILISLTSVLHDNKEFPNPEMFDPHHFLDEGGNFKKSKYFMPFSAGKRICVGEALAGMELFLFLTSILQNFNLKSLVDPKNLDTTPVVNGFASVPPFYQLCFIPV
Sequence of CYP 2D6 (P10635 whole entry): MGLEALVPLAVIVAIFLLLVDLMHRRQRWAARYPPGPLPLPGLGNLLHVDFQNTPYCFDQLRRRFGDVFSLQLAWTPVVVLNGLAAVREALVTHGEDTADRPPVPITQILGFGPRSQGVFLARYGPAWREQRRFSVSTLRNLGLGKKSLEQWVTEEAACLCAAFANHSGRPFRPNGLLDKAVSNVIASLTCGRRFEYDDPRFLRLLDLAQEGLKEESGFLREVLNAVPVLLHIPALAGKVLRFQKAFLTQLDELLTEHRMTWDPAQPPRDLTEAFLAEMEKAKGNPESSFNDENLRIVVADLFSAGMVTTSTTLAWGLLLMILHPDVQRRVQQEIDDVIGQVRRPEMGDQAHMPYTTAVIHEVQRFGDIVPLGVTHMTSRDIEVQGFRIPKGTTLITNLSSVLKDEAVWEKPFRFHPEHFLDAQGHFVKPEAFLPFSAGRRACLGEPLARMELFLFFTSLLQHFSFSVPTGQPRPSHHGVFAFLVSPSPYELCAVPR

## CNC(=O)c1ccc(N2C(=S)N(c3cnc(C#N)c(C(F)(F)F)c3)C(=O)C23CCC3)cc1F [ARN-509]
[1]; 1 mg/kg
  Kp at 30 min: 1.94 ± 0.24
  Kp at 120 min: 3.15 ± 0.94
[1]; [12]
  concentration at 30 min: 487 ± 73 ng/g
  concentration at 120 min: 482 ± 120 ng/g
[1]; [13]
  concentration at 30 min: 241 ± 21 ng/g
  concentration at 120 min: 176 ± 31 ng/g
[1]; [14]
  concentration at 30 min: 251 ± 29 ng/mL
  concentration at 120 min: 153 ± 10 ng/mL
CYP3A
  CYP3A induction, in words: still active
CYP3A; 1 uM
  CYP 3A induction, Positive control, %: 16.3±2.5%
CYP3A; 10 uM
  CYP 3A induction, Positive control, %: 102.7±13.0%
GABA receptors [2]
  IC50: 3 µM

## CC(O)(CS(=O)(=O)c1ccc(F)cc1)C(=O)Nc1ccc(C#N)c(C(F)(F)F)c1 (stereo not shown) [Bicalutamide, reference compound]
LnCaP-Z2 tumors; 50 mg/kg once daily
  antitumor efficacy, in words: less effective
[3]; 50 mg/kg
  Kp at 24 h: 2.5 ± 1.36
  concentration at 24 h: 3250 ng/mL and 8740 ng/g

## CNC(=O)c1ccc(N2C(=S)N(c3ccc(C#N)c(C(F)(F)F)c3)C(=O)C2(C)C)cc1F [MDV3100]
[4]
  Bound fraction: 96.4%
[5]
  Bound fraction: 97.3%
[6]
  Bound fraction: 98.4%
[1]; 2 mg/kg
  Kp at 30 min: 0.39 ± 0.03
  Kp at 120 min: 0.33 ± 0.16
[1]; [15]
  concentration at 30 min: 102 ± 4 ng/g
  concentration at 120 min: 124 ± 27 ng/g
[1]; [16]
  concentration at 30 min: 164 ± 19 ng/g
  concentration at 120 min: 152 ± 31 ng/g
[1]; [17]
  concentration at 30 min: 263 ± 19 ng/mL
  concentration at 120 min: 377 ± 153 ng/mL
CYP3A
  CYP3A induction, in words: still active
CYP3A; 1 uM
  CYP 3A induction, Positive control, %: 10.0±2.0%
CYP3A; 10 uM
  CYP 3A induction, Positive control, %: 73.3±6.8%
[3]; 10 mg/kg
  Kp at 24 h: 0.53 ± 0.15

## CNC(=O)c1ccc(N2C(=S)N(c3ccc(C#N)c(C(F)(F)F)c3)C(=O)[C@]23CCOC3)cc1F [ONC1-13B, 4-[(R)-3-(4-Cyano-3-trifluoromethyl-phenyl)-4-oxo-2-thioxo-7-oxa-1,3-diaza-spiro[4.4]non-1-yl]-2-fluoro-N-methyl-benzamide]
[7]
  fold more efficient than bicalutamide in inhibiting DHT-induced PSA expression: around 10 fold
AR
  inhibition of 6a-Fluotestosterone induced AR nuclear translocation, in words: completely inhibit
GABA receptors [8]
  inhibition of [3H]GABA specific binding: 42%
LnCaP-Z2 tumors; 20 mg/kg twice daily
  antitumor efficacy, in words: highest antitumor efficacy
LnCaP-Z2 tumors; 20 mg/kg twice daily po, 21 days
  tumors regressed: 4 of 8
LnCaP-Z2 tumors; once daily at 20 or 50 mg/kg, vs MDV3100 10mg/kg once daily
  antitumor efficacy, in words: comparable to MDV3100
[9]
  Bound fraction: 90.7%
[4]
  Bound fraction: 89.7%
[5]
  Bound fraction: 89.5%
[6]
  Bound fraction: 89.3%
[10]
  weight of prostate, epididymis and seminal vesicles, in words: significantly and dose-dependently decreases
[11]; 30 mg/kg po
  Concentration of spermatozoon in epididymis, M±m: 29,00 ± 2,73 х 10^6/ml
[11]; 300 mg/kg po
  Concentration of spermatozoon in epididymis, M±m: 16,00 ± 2,37 х 10^6/ml
Dog pharmacokinetics
  steady-state reached after: 10 administrations
[1]; 2 mg/kg
  Kp: 1.2 to 1.6
  Kp at 30 min: 1.55 ± 0.08
  Kp at 120 min: 1.2 ± 0.36
[1]; [15]
  concentration at 30 min: 1160 ± 164 ng/g
  concentration at 120 min: 625 ± 108 ng/g
[1]; [16]
  concentration at 30 min: 145 ± 22 ng/g
  concentration at 120 min: 89 ± 10 ng/g
[1]; [17]
  concentration at 30 min: 746 ± 104 ng/mL
  concentration at 120 min: 522 ± 57 ng/mL
CYP3A
  CYP3A induction, in words: no activity
CYP3A; 1 uM, listed as ONC1-0013B
  CYP 3A induction, Positive control, %: 0.0±2.0% and 3.3±0.6%
CYP3A; 10uM
  fold less potent in CYP3A induction compared to MDV3100 and ARN-509: ~ 2 fold
CYP3A; 10 uM, listed as ONC1-0013B
  CYP 3A induction, Positive control, %: 51.3±3.5% and 42.0±6.1%
CYP 1A2
  inhibition of CYP 1A2 activity: doesn`t inhibit
CYP 2C9
  inhibition of CYP 2C9 activity: doesn`t inhibit
CYP 2C19
  inhibition of CYP 2C19 activity: doesn`t inhibit
CYP 2D6
  inhibition of CYP 2D6 activity: doesn`t inhibit
CYP 3A4
  inhibition of CYP 3A4 activity: doesn`t inhibit
AR-LBD
  IC50: 19.9 µM
Rat pharmacokinetics; Multiple PO 100 mg/kg
  C24h: 2 794 ng/mL
Rat pharmacokinetics; Multiple PO 300 mg/kg
  C24h: 2 122 ng/mL
Rat pharmacokinetics; Single IV 1 mg/kg
  Vss_obs: 2.0 L/kg
  Сl: 6.4 mL/min/kg
Rat pharmacokinetics; iv, 1 mg/kg
  AUC(0-inf): 2.57 µg·h/mL
  k el: 4.64e-05 s⁻¹
Rat pharmacokinetics; po, 5 mg/kg
  MRT inf: 7 h
  concentration at 24 h: 51 ng/mL
  k el: 3.61e-05 s⁻¹
Rat pharmacokinetics; po, 30 mg/kg
  AUC(0-inf): 95 µg·h/mL
  Cmax: 7160 ng/mL
  MRT inf: 4 h
  Tmax: 4 h
  concentration at 24 h: 159 ng/mL
  half-life: 4 h
  k el: 5.28e-05 s⁻¹
Rat pharmacokinetics; po, 100 mg/kg
  AUC(0-inf): 268 µg·h/mL
  Cmax: 16400 ng/mL
  MRT inf: 10 h
  Tmax: 4 h
  half-life: 8 h
  k el: 2.5e-05 s⁻¹
Rat pharmacokinetics; po, 300 mg/kg
  AUC(0-inf): 314 µg·h/mL
  Cmax: 20500 ng/mL
  MRT inf: 7 h
  Tmax: 4 h
  half-life: 6 h
  k el: 3.06e-05 s⁻¹
[3]; 20 mg/kg
  Kp at 24 h: 0.78 ± 0.08
  concentration at 24 h: 76.2 ng/mL and 52.6 ng/g
[3]; 50 mg/kg
  Kp at 24 h: 0.77 ± 0.13
  concentration at 24 h: 154 ng/mL and 138 ng/g
[3]; po, 20 mg/kg
  Kp at 16 h: 0.72 ± 0.05
  concentration at 16 h: 456 ng/mL and 442 ng/g
